Source: ChEMBL document CHEMBL1201862, “PubChem BioAssay data set” (2004)
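Results reflect a 48-hour exposure of cells in 96-well plates to compound at five concentrations. GI50 is the concentration that inhibits growth by half.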 The source made the active and inactive calls. No stated cut-off is given here; in the data, active = GI50 up to about 1.1 µM and inactive = higher.

Columns and labels:
Test in all cases: inhibition of tumour cell growth, NCI panel, 48 h
[1] = tested on: MDA-MB-435
[2] = tested on: RXF 393
[3] = tested on: RPMI-8226
[4] = tested on: ACHN
[5] = tested on: A549
[6] = tested on: DU-145
[7] = tested on: HOP-92
[8] = tested on: SK-OV-3
[9] = tested on: OVCAR-4
[10] = tested on: CCRF-CEM
[11] = tested on: MDA-N
[12] = tested on: HL-60
[13] = tested on: COLO 205
[14] = tested on: SK-MEL-2
[15] = tested on: NCI/ADR-RES
[16] = tested on: NCI-H23
[17] = tested on: OVCAR-3
[18] = tested on: HT-29
[19] = tested on: UACC-257
[20] = tested on: M14
[21] = tested on: SK-MEL-5
[22] = tested on: OVCAR-5
[23] = tested on: IGROV-1
[24] = tested on: PC-3
[25] = tested on: SW-620
[26] = tested on: T47D
[27] = tested on: SNB-75
[28] = tested on: HCT-15
[29] = tested on: UACC-62
[30] = tested on: SK-MEL-28
[31] = tested on: KM12
[32] = tested on: SN12C
[33] = tested on: 786-0
[34] = tested on: MOLT-4
[35] = tested on: HOP-62
[36] = tested on: Hs-578T
[37] = tested on: CAKI-1
[38] = tested on: NCI-H226
[39] = tested on: SNB-19
[40] = tested on: U-251
[41] = tested on: HCC 2998
[42] = tested on: NCI-H460
[43] = tested on: OVCAR-8
[44] = tested on: BT-549
[45] = tested on: SF-268
[46] = tested on: HCT-116
[47] = tested on: SR
[48] = tested on: A498
[49] = tested on: K562
[50] = tested on: MDA-MB-231
[51] = tested on: LOX IMVI
[52] = tested on: SF-295
[53] = tested on: MCF7
[54] = tested on: TK-10
[55] = tested on: Malme-3M
[56] = tested on: EKVX
[57] = tested on: UO-31

## CCOC(=O)N1[C@@H]2CCC[C@@H]2C(=O)[C@@H]2CCC[C@@H]21
[1]
  GI50: > 100 µM (inactive)
[2]
  GI50: > 100 µM (inactive)
[3]
  GI50: > 100 µM (inactive)
[4]
  GI50: > 100 µM (inactive)
[5]
  GI50: > 100 µM (inactive)
[6]
  GI50: > 100 µM (inactive)
[7]
  GI50: > 100 µM (inactive)
[8]
  GI50: > 100 µM (inactive)
[9]
  GI50: > 100 µM (inactive)
[10]
  GI50: > 100 µM (inactive)
[11]
  GI50: > 100 µM (inactive)
[12]
  GI50: > 100 µM (inactive)
[13]
  GI50: > 100 µM (inactive)
[14]
  GI50: > 100 µM (inactive)
[15]
  GI50: > 100 µM (inactive)
[16]
  GI50: > 100 µM (inactive)
[17]
  GI50: > 100 µM (inactive)
[18]
  GI50: > 100 µM (inactive)
[19]
  GI50: > 100 µM (inactive)
[20]
  GI50: > 100 µM (inactive)
[21]
  GI50: > 100 µM (inactive)
[22]
  GI50: > 100 µM (inactive)
[23]
  GI50: > 100 µM (inactive)
[24]
  GI50: > 100 µM (inactive)
[25]
  GI50: > 100 µM (inactive)
[26]
  GI50: > 100 µM (inactive)
[27]
  GI50: > 100 µM (inactive)
[28]
  GI50: > 100 µM
[29]
  GI50: > 100 µM (inactive)
[30]
  GI50: > 100 µM (inactive)
[31]
  GI50: > 100 µM (inactive)
[32]
  GI50: > 100 µM (inactive)
[33]
  GI50: > 100 µM (inactive)
[34]
  GI50: > 100 µM (inactive)
[35]
  GI50: > 100 µM (inactive)
[36]
  GI50: > 100 µM (inactive)
[37]
  GI50: > 100 µM (inactive)
[38]
  GI50: > 100 µM (inactive)
[39]
  GI50: > 100 µM (inactive)
[40]
  GI50: > 100 µM (inactive)
[41]
  GI50: > 100 µM (inactive)
[42]
  GI50: > 100 µM (inactive)
[43]
  GI50: > 100 µM (inactive)
[44]
  GI50: > 100 µM (inactive)
[45]
  GI50: > 100 µM (inactive)
[46]
  GI50: > 100 µM (inactive)
[47]
  GI50: > 100 µM (inactive)
[48]
  GI50: > 100 µM (inactive)
[49]
  GI50: > 100 µM (inactive)
[50]
  GI50: > 100 µM (inactive)
[51]
  GI50: > 100 µM (inactive)

## COc1ccc2[nH]c3c(c2c1)CC(=S)N1CCCC(CC3=O)C1 (stereo not drawn)
[1]
  GI50: 46.3 µM (inactive)
[2]
  GI50: 20.7 µM (inactive)
[3]
  GI50: 64.9 µM (inactive)
[4]
  GI50: 38.8 µM (inactive)
[5]
  GI50: 32.4 µM (inactive)
[6]
  GI50: 62.4 µM (inactive)
[7]
  GI50: > 100 µM (inactive)
[8]
  GI50: 90.8 µM (inactive)
[9]
  GI50: 58.3 µM (inactive)
[52]
  GI50: 39.7 µM (inactive)
[10]
  GI50: 50.2 µM (inactive)
[11]
  GI50: 45.2 µM (inactive)
[13]
  GI50: 31.3 µM (inactive)
[53]
  GI50: 34.3 µM (inactive)
[14]
  GI50: 29.3 µM (inactive)
[15]
  GI50: 63.5 µM (inactive)
[16]
  GI50: 47.8 µM (inactive)
[17]
  GI50: 45.8 µM (inactive)
[18]
  GI50: 45.4 µM (inactive)
[19]
  GI50: 44.9 µM (inactive)
[54]
  GI50: > 100 µM (inactive)
[20]
  GI50: 45.9 µM (inactive)
[21]
  GI50: 37.1 µM (inactive)
[55]
  GI50: 43.3 µM (inactive)
[22]
  GI50: 64.9 µM (inactive)
[56]
  GI50: 37.8 µM (inactive)
[23]
  GI50: 64.4 µM (inactive)
[24]
  GI50: 37.2 µM (inactive)
[25]
  GI50: 52.7 µM (inactive)
[26]
  GI50: 48.9 µM (inactive)
[27]
  GI50: 52.4 µM (inactive)
[28]
  GI50: 57.7 µM
[29]
  GI50: 39 µM (inactive)
[30]
  GI50: 86.9 µM (inactive)
[31]
  GI50: 25.4 µM (inactive)
[32]
  GI50: 63 µM (inactive)
[33]
  GI50: 58.2 µM (inactive)
[35]
  GI50: 87.3 µM (inactive)
[57]
  GI50: 63.8 µM (inactive)
[36]
  GI50: 44 µM (inactive)
[37]
  GI50: 91 µM (inactive)
[38]
  GI50: 91.6 µM (inactive)
[39]
  GI50: 35.6 µM (inactive)
[40]
  GI50: 33.3 µM (inactive)
[41]
  GI50: 35.6 µM (inactive)
[42]
  GI50: 31.8 µM (inactive)
[43]
  GI50: 93.3 µM (inactive)
[44]
  GI50: > 100 µM (inactive)
[45]
  GI50: 45 µM (inactive)
[46]
  GI50: 29.4 µM (inactive)
[48]
  GI50: 43.1 µM (inactive)
[50]
  GI50: 50.2 µM (inactive)
